Measurements: the NIST ThermoML archive (doi:10.1021/je300873x)
± gives the expanded uncertainty stated by the source.

Experiment: mn = molality of the nth substance listed, in mol/kg
Settings: for surface tension liquid-gas: Pendant drop shape; for electrical conductivity: Liquid, Digital conductivity meter

CCCCCCCCCCCCCC[N+](C)(C)CCO.[Br-] [N-tetradecyl-hydroxyethyl-dimethyl ammonium bromide] + O
Settings	electrical conductivity [S/m]	surface tension liquid-gas [mN/m]
298.15 K, m1 = 0.0003	–	66.02 ± 0.59
298.15 K, m1 = 0.0006	–	60.97 ± 0.55
298.15 K, m1 = 0.00081	–	58.35 ± 0.53
298.15 K, m1 = 0.00101	–	55.52 ± 0.51
298.15 K, m1 = 0.00151	–	49.52 ± 0.46
298.15 K, m1 = 0.00201	–	45.03 ± 0.43
298.15 K, m1 = 0.00252	–	41.15 ± 0.4
298.15 K, m1 = 0.00258	0.0207 ± 0.0001	–
298.15 K, m1 = 0.00268	0.0215 ± 0.0001	–
298.15 K, m1 = 0.00279	0.0223 ± 0.0001	–
298.15 K, m1 = 0.00291	0.0232 ± 0.0001	–
298.15 K, m1 = 0.00302	–	38.35 ± 0.38
298.15 K, m1 = 0.00303	0.0241 ± 0.0001	–
298.15 K, m1 = 0.00317	0.0251 ± 0.0001	–
298.15 K, m1 = 0.00332	0.0261 ± 0.0001	–
298.15 K, m1 = 0.00349	0.027 ± 0.0001	–
298.15 K, m1 = 0.00367	0.0275 ± 0.0001	–
298.15 K, m1 = 0.00388	0.028 ± 0.0001	–
298.15 K, m1 = 0.00403	–	37.57 ± 0.37
298.15 K, m1 = 0.00411	0.0285 ± 0.0001	–
298.15 K, m1 = 0.00436	0.029 ± 0.0001	–
298.15 K, m1 = 0.00465	0.0296 ± 0.0001	–
298.15 K, m1 = 0.00499	0.0302 ± 0.0001	–
298.15 K, m1 = 0.00503	–	37.62 ± 0.37
298.15 K, m1 = 0.00537	0.0309 ± 0.0001	–
298.15 K, m1 = 0.00582	0.0318 ± 0.0001	–
298.15 K, m1 = 0.00604	–	37.61 ± 0.37
298.15 K, m1 = 0.00635	0.0328 ± 0.0001	–
298.15 K, m1 = 0.00698	0.034 ± 0.0001	–
298.15 K, m1 = 0.00806	–	37.61 ± 0.37
303.15 K, m1 = 0.00258	0.0231 ± 0.0001	–
303.15 K, m1 = 0.00268	0.024 ± 0.0001	–
303.15 K, m1 = 0.00279	0.0249 ± 0.0001	–
303.15 K, m1 = 0.0029	0.026 ± 0.0001	–
303.15 K, m1 = 0.00303	0.0269 ± 0.0001	–
303.15 K, m1 = 0.00317	0.028 ± 0.0001	–
303.15 K, m1 = 0.00332	0.0292 ± 0.0001	–
303.15 K, m1 = 0.00348	0.0303 ± 0.0001	–
303.15 K, m1 = 0.00367	0.031 ± 0.0001	–
303.15 K, m1 = 0.00387	0.0316 ± 0.0001	–
303.15 K, m1 = 0.0041	0.0322 ± 0.0001	–
303.15 K, m1 = 0.00436	0.0328 ± 0.0001	–
303.15 K, m1 = 0.00465	0.0335 ± 0.0001	–
303.15 K, m1 = 0.00498	0.0342 ± 0.0001	–
303.15 K, m1 = 0.00536	0.035 ± 0.0001	–
303.15 K, m1 = 0.00581	0.036 ± 0.0001	–
303.15 K, m1 = 0.00634	0.0372 ± 0.0001	–
303.15 K, m1 = 0.00697	0.0385 ± 0.0001	–
308.15 K, m1 = 0.00258	0.0254 ± 0.0001	–
308.15 K, m1 = 0.00268	0.0263 ± 0.0001	–
308.15 K, m1 = 0.00278	0.0274 ± 0.0001	–
308.15 K, m1 = 0.0029	0.0283 ± 0.0001	–
308.15 K, m1 = 0.00303	0.0295 ± 0.0001	–
308.15 K, m1 = 0.00316	0.0308 ± 0.0001	–
308.15 K, m1 = 0.00331	0.0321 ± 0.0001	–
308.15 K, m1 = 0.00348	0.0334 ± 0.0001	–
308.15 K, m1 = 0.00366	0.0346 ± 0.0001	–
308.15 K, m1 = 0.00387	0.0352 ± 0.0001	–
308.15 K, m1 = 0.00409	0.0359 ± 0.0001	–
308.15 K, m1 = 0.00435	0.0366 ± 0.0001	–
308.15 K, m1 = 0.00464	0.0374 ± 0.0001	–
308.15 K, m1 = 0.00497	0.0383 ± 0.0001	–
308.15 K, m1 = 0.00535	0.0393 ± 0.0001	–
308.15 K, m1 = 0.0058	0.0404 ± 0.0001	–
308.15 K, m1 = 0.00633	0.0418 ± 0.0001	–
308.15 K, m1 = 0.00696	0.0435 ± 0.0001	–
313.15 K, m1 = 0.00257	0.0278 ± 0.0001	–
313.15 K, m1 = 0.00267	0.0287 ± 0.0001	–
313.15 K, m1 = 0.00278	0.0298 ± 0.0001	–
313.15 K, m1 = 0.00289	0.0311 ± 0.0001	–
313.15 K, m1 = 0.00302	0.0325 ± 0.0001	–
313.15 K, m1 = 0.00316	0.0339 ± 0.0001	–
313.15 K, m1 = 0.00331	0.0354 ± 0.0001	–
313.15 K, m1 = 0.00347	0.037 ± 0.0001	–
313.15 K, m1 = 0.00366	0.0385 ± 0.0001	–
313.15 K, m1 = 0.00386	0.0395 ± 0.0001	–
313.15 K, m1 = 0.00409	0.0405 ± 0.0001	–
313.15 K, m1 = 0.00434	0.0414 ± 0.0001	–
313.15 K, m1 = 0.00463	0.0421 ± 0.0001	–
313.15 K, m1 = 0.00496	0.0431 ± 0.0001	–
313.15 K, m1 = 0.00534	0.0441 ± 0.0001	–
313.15 K, m1 = 0.00579	0.0455 ± 0.0001	–
313.15 K, m1 = 0.00631	0.0472 ± 0.0001	–
313.15 K, m1 = 0.00695	0.0491 ± 0.0001	–
318.15 K, m1 = 0.00257	0.0307 ± 0.0001	–
318.15 K, m1 = 0.00267	0.0317 ± 0.0001	–
318.15 K, m1 = 0.00277	0.0329 ± 0.0001	–
318.15 K, m1 = 0.00289	0.0343 ± 0.0001	–
318.15 K, m1 = 0.00301	0.0356 ± 0.0001	–
318.15 K, m1 = 0.00315	0.037 ± 0.0001	–
318.15 K, m1 = 0.0033	0.0385 ± 0.0001	–
318.15 K, m1 = 0.00347	0.0407 ± 0.0001	–
318.15 K, m1 = 0.00365	0.0426 ± 0.0001	–
318.15 K, m1 = 0.00385	0.044 ± 0.0001	–
318.15 K, m1 = 0.00408	0.0454 ± 0.0001	–
318.15 K, m1 = 0.00433	0.0465 ± 0.0001	–
318.15 K, m1 = 0.00462	0.0475 ± 0.0001	–
318.15 K, m1 = 0.00495	0.0488 ± 0.0001	–
318.15 K, m1 = 0.00533	0.0499 ± 0.0001	–
318.15 K, m1 = 0.00578	0.0514 ± 0.0001	–
318.15 K, m1 = 0.0063	0.0531 ± 0.0001	–
318.15 K, m1 = 0.00693	0.0552 ± 0.0001	–
323.15 K, m1 = 0.00256	0.0332 ± 0.0001	–
323.15 K, m1 = 0.00266	0.0345 ± 0.0001	–
323.15 K, m1 = 0.00277	0.0357 ± 0.0001	–
323.15 K, m1 = 0.00288	0.0372 ± 0.0001	–
323.15 K, m1 = 0.00301	0.0389 ± 0.0001	–
323.15 K, m1 = 0.00314	0.0404 ± 0.0001	–
323.15 K, m1 = 0.00329	0.0423 ± 0.0001	–
323.15 K, m1 = 0.00346	0.0442 ± 0.0001	–
323.15 K, m1 = 0.00364	0.0465 ± 0.0001	–
323.15 K, m1 = 0.00384	0.0487 ± 0.0001	–
323.15 K, m1 = 0.00407	0.0506 ± 0.0001	–
323.15 K, m1 = 0.00432	0.0522 ± 0.0001	–
323.15 K, m1 = 0.00461	0.0535 ± 0.0001	–
323.15 K, m1 = 0.00494	0.0547 ± 0.0001	–
323.15 K, m1 = 0.00532	0.0563 ± 0.0001	–
323.15 K, m1 = 0.00576	0.0581 ± 0.0001	–
323.15 K, m1 = 0.00629	0.0598 ± 0.0001	–
323.15 K, m1 = 0.00692	0.062 ± 0.0001	–
